Test results as given in US7381541B2, “Methods for producing animal feed preparations with astaxanthin-containing plants or parts of plants of the genus Tagetes” (SunGene GmbH & Co. KGaA, priority 2002, dated 2008).

System: trout
Assay: Oral administration to trout in a standard trout feed: examination of bioavailability, pigmenting and performance parameters
Format: in vivo
Conditions: 8 weeks
Procedure: The trout feed comprising the inventive astaxanthin pigments is produced in accordance with Example IV and administered orally to trout (mean live mass 180 g). 3 concentrations are tested: 10, 20 and 40 mg of astaxanthin from the inventive astaxanthin pigmenting per kg of diet.
The trout are raised as described hereinafter: • The trout are given as standard an adaptation phase of 14 days. • During the feeding experiment, 10 trout are kept per pool in constant-flow plastic tanks of volume 80 l of water. The water temperature is 15° C. The water is biologically purified and at least 10% of the total amount of water is replaced by fresh water per day. • The illumination period is 12 hours per day to avoid premature sexual maturation of the animals. • The number of pools per treatment is 3. This is equivalent to 30 trout per dose level. • The diets are stored at −20° C. to avoid astaxanthin losses. The feed is thawed by portions (weekly) and administered. • The experimental period is 8 weeks. […]
The average feed consumption per fish, feed conversion and live mass gain are statistically evaluated.
The pigmenting of the fish is measured by reflectance spectrophotometric measurements (Minolta a value =red value at the fillet incision) and by determining the astaxanthin content (mg/kg) in the fillet in each case compared with the negative control.

Structure (SMILES): CC1=C(/C=C/C(C)=C/C=C/C(C)=C/C=C/C=C(C)/C=C/C=C(C)/C=C/C2=C(C)C(=O)[C@@H](O)CC2(C)C)C(C)(C)C[C@H](O)C1=O [synthetic astaxanthin, astaxanthin]
- performance parameters (feed intake, feed utilization, live mass gain): differences between or within treatments: no statistically secured differences
